Assay results reported in patent US12629364B2, “Methods of treating cancers overexpressing CARM1 with EZH2 inhibitors and platinum-based antineoplastic drugs” (The Wistar Institute of Anatomy and Biology, priority 2016, dated 2026).

Columns and labels:
[1] = tested on: A1847 parental and CARM1 knockout cells; assay: Epigenetic targeting small molecule set screen (14-day colony formation); type: cell-based, Human; conditions: A1847 parental vs CARM1 knockout; 14 days; normalized to vehicle
Procedure: FIG. 26 illustrates that CARM1-expressing cells are selectively sensitized to EZH2 inhibitors. Equal number of parental control or CARM1 knockout […] cells were plated and treated with each of the 23 individual epigenetic inhibitors for 14 days. The media with the inhibitors was refreshed every 3 days. Cell growth was quantified as integrated density using NIH Image J software. Quantification of the average integrated density graphed as a scatter plot. The X-axis indicates the relative growth of treated CARM1 high parental […] cells compared with DMSO vehicle controls. Y-axis indicates the relative growth of treated CARM1 knockout […] cells compared with DMSO vehicle controls. n=4; and error bars represents SEM. FIG. 27 illustrates a table of EZH2 inhibitors that are selective against CARM1 expression. CARM1-high parental controls and CARM1 knockout […] cells were treated with the indicated concentration of the small molecules in a 14-day colony formation assay. Integrated density for each well was calculated using NIH Image J software. The relative growth of the indicated cells was determined by normalizing to the vehicle control treated cells. n=4 and p-value was calculated using a two-tailed t-test. FIG. 28 illustrates representative images of colonies formed by the cells treated with the indicated inhibitors. GSK126 and UNC1999 representative positive hits from the screen. […] parental and CARM1 knockout cells were plated in 24-well plates and treated with 24 epigenetic compounds. Cell medium was changed every three days with appropriate drug doses for 14 days or until control wells became confluent. Colonies were washed twice with PBS and fixed with 10% methanol and 10% acetic acid in distilled water. Fixed colonies were stained with 0.005% crystal violet. Integrated density was measured using NIH ImageJ software as a surrogate for cell growth.

[2] = tested on: parental and CARM1 knockout A1847 cells, OVCAR10 cells; assay: Apoptosis markers (Annexin V, cleaved caspase 3, cleaved PARP); type: cell-based, Human; conditions: 10 μM; 7 days; CARM1-dependent manner
Procedure: FIG. 37 illustrates control parental and CARM1 knockout A1847 cells were treated with 10 μM GSK126 or vehicle for 7 days. Percentage of Annexin V positive apoptotic cells was quantified. *p<0.001 and #p>0.05.
FIG. 38 illustrates levels of cleaved caspase 3 and cleaved PARP in control parental and CARM1 knockout A1847 cells treated with 10 μM GSK126 for 7 days. Expression of β-actin was used as a loading control.
FIG. 39A illustrates the expression of apoptosis markers cleaved in CARM1 high OVCAR10 cells as a result of treatment with GSK126. CARM1 high OVCAR10 cells were treated with 10 μM GSK 126 or vehicle control for 7 days. The expression of apoptosis markers cleaved caspase 3 and cleaved PARP were determined by immunoblot. Expression of β-actin was used as a loading control.
Phosphatidylserine externalization was detected using an Annexin V staining kit (Millipore) following the manufacturer's instructions. Annexin V-positive cells were detected using the Guava System and analyzed with the Guava Nexin software Module (Millipore).

CC[C@H](C)n1cc(C)c2c(C(=O)NCc3c(C)cc(C)[nH]c3=O)cc(-c3ccc(N4CCNCC4)nc3)cc21 [GSK126, (S)-1-(sec-butyl)-N-((4,6-dimethyl-2-oxo-1,2-dihydropyridin-3-yl)methyl)-3-methyl-6-(6-(piperazin-1-yl)pyridin-3-yl)-1H-indole-4-carboxamide]
selective growth suppression of CARM1-expressing versus CARM1 KO cells [1]: showed selectivity against CARM1-expressing cells | markers of apoptosis [2]: markers of apoptosis were induced
